Where a name gives a salt, the structure may show the parent alone.
biological target: 5-HT5A (Homo sapiens, UniProt P47898); test: Affinity of selected compounds for 5-HT5A (Ki); format: binding
Experimental: In both assays, different concentrations of the test substances are used and the Ki and IC50 values are determined.

Sequence of 5-HT5A (P47898 whole entry): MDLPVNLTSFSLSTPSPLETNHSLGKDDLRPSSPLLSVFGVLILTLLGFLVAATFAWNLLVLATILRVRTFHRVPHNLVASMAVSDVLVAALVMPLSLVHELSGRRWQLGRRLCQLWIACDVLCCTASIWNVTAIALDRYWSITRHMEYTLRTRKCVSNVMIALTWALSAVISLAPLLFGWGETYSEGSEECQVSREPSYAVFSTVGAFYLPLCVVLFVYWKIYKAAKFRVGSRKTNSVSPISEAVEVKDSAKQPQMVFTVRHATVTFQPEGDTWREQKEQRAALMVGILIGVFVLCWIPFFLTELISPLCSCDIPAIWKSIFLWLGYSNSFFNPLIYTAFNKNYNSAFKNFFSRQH

SMILES	Ki
COc1cccc(OC)c1CN1Cc2ccc(-c3ccc(OC(F)(F)F)cc3)cc2N=C1N [Example 87, 3-(2,6-Dimethoxybenzyl)-7-[4-trifluoromethoxy)phenyl]-3,4-dihydroquinazoline-2-aminium acetate]	< 300 nM
NC1=Nc2ccccc2CN1Cc1ccccc1OC(F)(F)F [Example 69, 3-[2-(Trifluoromethoxy)benzyl]-3,4-dihydroquinazolin-2-amine]	< 300 nM
COc1cccc(CN2Cc3ccccc3N=C2N)c1OC [Example 71, 3-(2,3-Dimethoxybenzyl)-3,4-dihydroquinazolin-2-amine hydrochloride]	< 10000 nM
COc1cccc(F)c1Cc1cc2cc(N3CCN(C)CC3)ccc2nc1N [Example 49, 3-(2-Fluoro-6-methoxybenzyl)-6-(4-methylpiperazin-1-yl)quinolin-2-aminomonofumarate]	< 300 nM
COc1cccc(OC)c1CN1Cc2ccc(Br)cc2N=C1N [Example 81, 7-Bromo-3-(2,6-dimethoxybenzyl)-3,4-dihydroquinazolin-2-amine]	< 300 nM
CC(C)Oc1ccccc1Cc1cc2ccccc2nc1N [Example 54, 3-(2-Isopropoxybenzyl)quinolin-2-amine hydrochloride]	< 300 nM
COc1cccc(OC)c1CN1Cc2ccc(-c3ccccc3)cc2N=C1N [Example 82, 3-(2,6-Dimethoxybenzyl)-7-phenyl-3,4-dihyroquinazoli-2-aminium acetate]	< 300 nM
COc1cccc(OC)c1CN1Cc2cc(Cl)ccc2N=C1N [Example 89, 6-Chloro-3-(2,6-dimethoxybenzyl)-3,4-dihydroquinazolin-2-amine]	< 300 nM
CCOc1ccc2nc(N)c(Cc3ccccc3OC)cc2c1 [Example 31, 6-Ethoxy-3-(2-methoxybenzyl)quinolin-2-amine]	< 300 nM
COc1cc2cc(Cc3c(OC)cccc3OC)c(N)nc2cc1OC [Example 13, 3-(2,6-Dimethoxybenzyl)-6,7-dimethoxy-quinolin-2-amine]	< 300 nM
COc1ccccc1Cc1cc2cccnc2nc1N [Example 34, 3-(2-Methoxybenzyl)-1,8-naphthyridin-2-amine]	< 10000 nM
COc1ccccc1Cc1cc2ccc(F)cc2nc1N [Example 39, 7-Fluoro-3-(2-methoxybenzyl)quinolin-2-amine]	< 300 nM
COc1ccccc1Cc1cc2ncccc2nc1N [Example 38, 3-(2-Methoxybenzyl)-1,5-naphthyridin-2-amine]	< 300 nM
COc1cccc(OC)c1CN1Cc2ccc(Cl)cc2N=C1N [Example 90, 7-Chloro-3-(2,6-dimethoxybenzyl)-3,4-dihydroquinazolin-2-amine]	< 300 nM
COc1cccc(OC)c1Cc1cc2cnccc2nc1N [Example 22, 3-(2,6-Dimethoxybenzyl)-1,6-naphthyridin-2-amine]	< 300 nM
CCOc1cccc(F)c1Cc1cc2ccccc2nc1N [Example 59, 3-(2-Ethoxy-6-fluorobenzyl)quinolin-2-amine hydrochloride]	< 300 nM
CCOc1ccc2nc(N)c(Cc3c(OC)cccc3OC)cc2c1 [Example 32, 6-Ethoxy-3-(2,6-dimethoxybenzyl)quinolin-2-amine]	< 300 nM
COc1ccccc1Cc1cc2cc(F)ccc2nc1N [Example 18, 6-Fluoro-3-(2-methoxybenzyl)quinolin-2-amine]	< 300 nM

More lines, now with the values ahead:

Ki	SMILES
< 300 nM	COc1cccc(OC)c1Cc1cc2ccccc2nc1N [Example 3, 3-(2,6-Dimethoxybenzyl)quinolin-2-amine]
< 300 nM	COc1cccc(OC)c1CN1Cc2ccc(-c3cccs3)cc2N=C1N [Example 86, 3-(2,6-Dimethoxybenzyl)-7-(2-thienyl)-3,4-dihydroquinazolin-2-aminium acetate]
< 300 nM	COc1ccccc1Cc1cc2c(Cl)cccc2nc1N [Example 19, 5-Chloro-3-(2-methoxybenzyl)quinolin-2-amine]
< 300 nM	COc1cccc(OC)c1Cc1cc2ncccc2nc1N [Example 46, 3-(2,6-Dimethoxybenzyl)-1,5-naphthyridin-2-amine]
< 300 nM	COc1cccc(F)c1Cc1cc2ccccc2nc1N [Example 29, 3-(2-Fluoro-6-methoxybenzyl)quinolin-2-amine]
< 300 nM	COc1ccccc1Cc1cc2cc(N3CCN(C)CC3)ccc2nc1N [Example 48, 3-(2-Methoxybenzyl)-6-(4-methylpiperazin-1-yl)quinolin-2-amine bisfumarate]
< 10000 nM	NC1=Nc2ccccc2CN1Cc1ccccc1O [Example 72, 2-[(2-Aminoquinazolin-3(4H)-yl)methyl]phenol]
< 300 nM	COc1ccc2nc(N)c(Cc3ccccc3OC)cc2c1 [Example 7, 6-Methoxy-3-(2-methoxybenzyl)quinolin-2-amine]
< 10000 nM	CCCCNC1=Nc2ccccc2CN1Cc1ccccc1OC [Example 76, 2-(Butylamino)-3-(2-methoxybenzyl)-3,4-dihydroquinazoline hydrochloride]
< 10000 nM	COc1ccc(-c2ccc3c(c2)N=C(N)N(Cc2c(OC)cccc2OC)C3)cc1 [Example 83, 3-(2,6-Dimethoxybenzyl)-7-(4-methoxyphenyl)-3,4-dihydroquinazolin-2-aminium acetate]
< 300 nM	COc1cccc(F)c1Cc1cc2ccc(Cl)cc2nc1N [Example 26, 7-Chloro-3-(2-fluoro-6-methoxybenzyl)quinolin-2-amine]
< 10000 nM	COc1ccccc1CN1Cc2ccccc2N=C1N1CCN(Cc2ccccc2)CC1 [Example 80, 2-(4-Benzylpiperazin-1-yl)-3-(2-methoxybenzyl)-3,4-dihydroquinazoline fumarate]
< 300 nM	COc1cccc(OC)c1Cc1cc2ccncc2nc1N [Example 37, 3-(2,6-Dimethoxybenzyl)-1,7-naphthyridin-2-amine]
< 300 nM	COc1cc(Cl)ccc1CN1Cc2ccccc2N=C1N [Example 67, 3-(4-Chloro-2-methoxybenzyl)-3,4-dihydroquinazolin-2-amine hydrochloride]
< 300 nM	COc1cccc(F)c1Cc1cc2cc(F)ccc2nc1N [Example 24, 6-Fluoro-3-(2-fluoro-6-methoxybenzyl)quinolin-2-amine]
< 10000 nM	COc1ccccc1CN1Cc2ccccc2N=C1NC1CCN(Cc2ccccc2)CC1 [Example 96, N-(1-Benzylpiperidin-4-yl)-3-(2-methoxybenzyl)-3,4-dihydroquinazolin-2-amine fumarate]
< 300 nM	COc1ccccc1Cc1cc2ccc(Cl)cc2nc1N [Example 15, 7-Chloro-3-(2-methoxybenzyl)quinolin-2-amine]
< 300 nM	COc1cccc(OC)c1Cc1cc2cc(Cl)ccc2nc1N [Example 9, 6-Chloro-3-(2,6-dimethoxybenzyl)quinolin-2-amine]
< 300 nM	COc1ccccc1CN1Cc2ccccc2N=C1N [Example 64, 3-(2-Methoxybenzyl)-3,4-dihydroquinazolin-2-amine hydrochloride]
< 300 nM	COCCOc1ccc2nc(N)c(Cc3ccccc3OC)cc2c1 [Example 43, 3-(2-Methoxybenzyl)-6-(2-methoxyethoxy)quinolin-2-amine]
< 300 nM	COc1ccccc1CN1Cc2ccc([N+](=O)[O-])cc2N=C1N [Example 91, 3-(2-Methoxybenzyl)-7-nitro-3,4-dihydroquinazolin-2-amine]
< 300 nM	CCOc1ccccc1Cc1cc2cc(N3CCOCC3)ccc2nc1N [Example 62, 3-(2-Ethoxygenzyl)-6-morpholin-4-ylquinolin-2-amine monofumarate]

From US8686002B2, “Heterocyclic compounds and their use as binding partners for 5-HT5 receptors” (AbbVie Deutschland GmbH & Co. KG, priority 2005, dated 2014)
